Measurements published in patent publication US20100022584A1, “Modulation of Glutamine Synthetase Activity” (priority 2006, published 2010).
Numbering of substitutions follows the chain as printed.

Tests used:
Experiment in all cases: HPLC forward-reaction glutamine synthetase assay with serine protease inhibitors
Format in all cases: biochemical, E. coli
[1] = molecular target: T1, glutamine synthetase mutant S52A (Escherichia coli, UniProt P0A9C5, S53A); details: 1 mM inhibitor; for inhibition of the enzyme (in words): HPLC assays; for % Reduction in ADP-based Specific Activity / % Reduction in Glutamine-based Specific Activity: 60 min pre-incubation, vs no-inhibitor control, positive = activity increased; for % Conversion: glutamine-based divided by ADP-based specific activity
T1 construct: made in house; host or cells: E. coli YMC11 (glutamine synthetase auxotroph), pBluescript II SK+
T1 sequence (P0A9C5 2-469 S53A limits assumed): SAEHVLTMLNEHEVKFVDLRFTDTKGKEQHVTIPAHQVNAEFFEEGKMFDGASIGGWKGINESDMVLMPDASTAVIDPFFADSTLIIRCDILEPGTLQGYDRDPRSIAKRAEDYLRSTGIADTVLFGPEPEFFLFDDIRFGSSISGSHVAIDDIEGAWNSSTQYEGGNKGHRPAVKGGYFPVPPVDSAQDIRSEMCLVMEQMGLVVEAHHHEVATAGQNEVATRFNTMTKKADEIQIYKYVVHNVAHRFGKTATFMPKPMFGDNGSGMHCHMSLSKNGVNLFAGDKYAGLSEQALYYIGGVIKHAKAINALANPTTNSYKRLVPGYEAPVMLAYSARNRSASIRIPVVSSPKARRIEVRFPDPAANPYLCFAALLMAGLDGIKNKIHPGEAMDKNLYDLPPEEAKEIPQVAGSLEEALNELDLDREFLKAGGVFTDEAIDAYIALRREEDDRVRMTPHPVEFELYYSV
Experimental: (§1) This assay was set up to measure glutamine synthetase activity according to the forward reaction, and measures the amount of glutamine formed from […] of L-glutamate in the presence of MnCO3-ATP (the basis of one reaction) and MgATP (the basis of a second reaction). In addition, the amount of ADP formed is also measured in a separate assay, using the same reagents.
(§2) All enzyme preparations were adjusted to the same concentration of protein, and added to the assay mixture in a volume of 50 μl. The addition of the enzyme started the reaction, which was then allowed to proceed for 1 hour. The reaction was stopped by the addition of 6 μl of a 50% solution of trichloroacetic acid. Each assay was then aliquoted into 4 HPLC vials (150 μl per vial), two of which were assayed for glutamate and glutamine using a Phenomenex Luna 5 μC18 Column on an Agilent 100 HPLC instrument. The ATP/ADP assays were run on a Chromolith Performance RP-18c column also using an Agilent 100 HPLC instrument.
(§3) As it is believed that two putative catalytic triads, similar to those in the serine proteases, are involved in the reaction mechanism of glutamine synthetase, certain of the mutants were also assayed by HPLC in the presence of the serine protease inhibitors, AEBSF and PMSF, in order to assess the effect that these inhibitors had on the enzyme. The enzymes assessed were the adenylylated WT enzyme, the deadenylylated WT enzyme, and the mutant enzymes S52A, S52A Y397V, S53A, S53A Y397V, S52A S53A and S52A S53A Y397V. The enzymes were pre-incubated for 60 minutes in the presence of 1 mM PMSF or 1 mM AEBSF. A control reaction was set up for each enzyme, which contained no inhibitor. Each enzyme was then added to assays set up as described above. The assay was allowed to proceed for 60 minutes, then stopped by the addition of […] of 50% TCA, after which they were analysed by HPLC. All assays were run in triplicate.
(§4) In addition to the γ-glutamyl transferase assays, assays were also developed to measure the rate of conversion of ATP and glutamate to ADP and glutamine by HPLC. These were set up as single assays but analysed separately for glutamate and glutamine and ATP and ADP. The conversion rates for glutamate to glutamine, in both the presence of Mn^2+ and Mg^2+ by glutamine synthetase, is referred to as the […] specific activity and is presented in μmoles/min/mg protein. The conversion rates for ATP to ADP, in both the presence of Mn^2+ and Mg^2+ by glutamine synthetase, is referred to as the ADP-based specific activity and is presented in μmoles/min/mg protein. The percentage of conversion was also calculated by dividing the glutamine-based specific activity by the ADP-based specific activity, and this value is interpreted as the ability of the enzyme to complete both steps of the reaction, i.e., glutamate to glutamine and ATP to ADP, at an equivalent level of efficiency.

[2] = molecular target: T2, glutamine synthetase mutant S53A (Escherichia coli, UniProt P0A9C5, S54A); details: 1 mM inhibitor; for inhibition of the enzyme (in words): HPLC assays; for % Reduction in ADP-based Specific Activity / % Reduction in Glutamine-based Specific Activity: 60 min pre-incubation, vs no-inhibitor control, positive = activity increased; for % Conversion: glutamine-based divided by ADP-based specific activity
T2 construct: made in house; host or cells: E. coli YMC11 (glutamine synthetase auxotroph), pBluescript II SK+
T2 sequence (P0A9C5 2-469 S54A limits assumed): T1 sequence (P0A9C5 2-469 S53A limits assumed) with A52S, S53A
Experimental: as §1, §2, §3, §4

[3] = molecular target: T3, glutamine synthetase mutant S53A Y397V (Escherichia coli, UniProt P0A9C5, S54A/Y398V); details: 1 mM inhibitor; for % Reduction in ADP-based Specific Activity / % Reduction in Glutamine-based Specific Activity: 60 min pre-incubation, vs no-inhibitor control, positive = activity increased; for % Conversion: glutamine-based divided by ADP-based specific activity
T3 construct: made in house; host or cells: E. coli YMC11 (glutamine synthetase auxotroph), pBluescript II SK+
T3 sequence (P0A9C5 2-469 S54A/Y398V limits assumed): T1 sequence (P0A9C5 2-469 S53A limits assumed) with A52S, S53A, Y397V
Experimental: as §1, §2, §3, §4

NCCc1ccc(S(=O)(=O)F)cc1 [AEBSF]
inhibition of the enzyme (in words) [1]: appeared to cause inhibition | % Reduction in ADP-based Specific Activity ([1]; Mg assay): −31.77% | % Reduction in Glutamine-based Specific Activity ([1]; Mg assay): −10.61% | % Conversion ([1]; Mg assay): 109% | % Reduction in ADP-based Specific Activity ([1]; Mn assay): +30.66% | % Reduction in Glutamine-based Specific Activity ([1]; Mn assay): +15.27% | % Conversion ([1]; Mn assay): 81% | inhibition of the enzyme (in words) [2]: appeared to cause inhibition | % Reduction in ADP-based Specific Activity ([2]; Mg assay): −39.50% | % Reduction in Glutamine-based Specific Activity ([2]; Mg assay): −1.70% | % Conversion ([2]; Mg assay): 83% | % Reduction in ADP-based Specific Activity ([2]; Mn assay): −15.43% | % Reduction in Glutamine-based Specific Activity ([2]; Mn assay): −15.19% | % Conversion ([2]; Mn assay): 115% | inhibition of the enzyme (in words) ([3]; HPLC assays): appeared to cause inhibition | % Reduction in ADP-based Specific Activity ([3]; Mg assay): −100.00% | % Reduction in Glutamine-based Specific Activity ([3]; Mg assay): −55.60% | % Reduction in ADP-based Specific Activity ([3]; Mn assay): +14.80% | % Reduction in Glutamine-based Specific Activity ([3]; Mn assay): +5.16% | % Conversion ([3]; Mn assay): 75%

O=S(=O)(F)Cc1ccccc1 [PMSF]
inhibition of the enzyme (in words) [1]: found to inhibit | % Reduction in ADP-based Specific Activity ([1]; Mg assay): −19.51% | % Reduction in Glutamine-based Specific Activity ([1]; Mg assay): −43.54% | % Conversion ([1]; Mg assay): 59% | % Reduction in ADP-based Specific Activity ([1]; Mn assay): −13.41% | % Reduction in Glutamine-based Specific Activity ([1]; Mn assay): −39.84% | % Conversion ([1]; Mn assay): 64% | inhibition of the enzyme (in words) [2]: found to inhibit | % Reduction in ADP-based Specific Activity ([2]; Mg assay): −17.31% | % Reduction in Glutamine-based Specific Activity ([2]; Mg assay): +6.90% | % Conversion ([2]; Mg assay): 66% | % Reduction in ADP-based Specific Activity ([2]; Mn assay): +46.95% | % Reduction in Glutamine-based Specific Activity ([2]; Mn assay): −22.73% | % Conversion ([2]; Mn assay): 61% | % Reduction in ADP-based Specific Activity ([3]; Mn assay): +39.67% | % Reduction in Glutamine-based Specific Activity ([3]; Mn assay): +6.07% | % Conversion ([3]; Mn assay): 63%
